{"source": "patent US20070021430A1", "about": "“Novel crystalline form of a phosphoric acid salt of a dipeptidyl peptidase-iv inhibitor” (priority 2003, published 2007)", "key": {"solubility in water": {"experiment": "solubility in water", "assay_type": "physicochemical"}, "[1]": {"experiment": "solid-state stability / conversion of crystal form", "assay_type": "physicochemical", "procedure": "Form IV was prepared by heating the above monohydrate at 120° C. for about 2 h or by heating the monohydrate above 58° C. for about 8 h. Form IV is metastable and converts into the crystalline monohydrate slowly under ambient conditions and rapidly under high relative humidity (98%) at room temperature. Form IV can also be converted to anhydrate Form I in about 1 h at a temperature above 140° C."}}, "data": [{"smiles": "N[C@@H](CC(=O)N1CCn2c(nnc2C(F)(F)F)C1)Cc1cc(F)c(F)cc1F", "note": "[Form IV, (2R)-4-oxo-4-[3-(trifluoromethyl)-5,6-dihydro[1,2,4]triazolo[4,3-a]pyrazin-7(8H)-yl]-1-(2,4,5-trifluorophenyl)butan-2-amine dihydrogenphosphate anhydrate Form IV]", "values": [{"measurement": "solubility in water", "setting": "solubility in water", "value": "high"}, {"measurement": "conversion into the crystalline monohydrate", "setting": "[1]; ambient conditions", "value": "slowly"}, {"measurement": "conversion into the crystalline monohydrate", "setting": "[1]; high relative humidity (98%) at room temperature", "value": "rapidly"}, {"measurement": "physical stability of the crystal form", "setting": "[1]; solid state", "value": "metastable"}, {"measurement": "time for conversion to anhydrate Form I", "setting": "[1]; temperature above 140° C.", "value": "about 1 h"}]}]}
